We go through 29 compounds from US9399638B2, “Substituted pyridine compounds as CRAC modulators” (LUPIN LIMITED, priority 2012, dated 2016).

As usually defined, the IC50 is the concentration that gives 50% inhibition. Read a high IC50 as weaker potency.

The subject of the assay is IL-2 secretion by Jurkat T cells. Briefly: Inhibition of IL-2 secretion. To be noted: Homo sapiens; Jurkat T cells stimulated with PHA, 20 to 24 hours, IL-2 by ELISA. The class given is cell-based. As for the experimental part:
The CRAC channel modulatory activity of the compounds were thus evaluated by measuring the secretion of IL-2 by antigen stimulated T-cells in vitro. Alternatively, such activity can also be evaluated by assay methods known to one skilled in the art.
Inhibition of IL-2 secretion: Jurkat T cells were seeded at a density of 0.5 to 1 million cells per well in RPMI medium. Test compounds from this invention were added to the cells at different concentrations. This was followed by the addition of PHA, a T cell mitogen after 10 minutes. The cells were then incubated for 20 to 24 hours in a CO2 incubator at 37° C. After incubation with the compounds, cells were centrifuged, the supernatant was collected and processed for ELISA to quantitate the amount of IL-2 secreted. A commercial ELISA kit (R&D Systems, Inc. Minneapolis, Minn., USA) was used to estimate the IL-2 concentrations. Amount of IL-2 secreted by cells stimulated with PHA was considered as a 100% maximal signal and the decrease in amount of IL-2 secreted by cells treated with the test compounds was expressed as percent inhibition of the maximal signal. The dose response data was analyzed using 4-parametric sigmoidal dose response (variable slope) curve—fit.
In general terms: ELISA stands for enzyme-linked immunosorbent assay.
The compound `CCc1ncc(-c2nn(C)c(=O)o2)cc1-c1ccc(NC(=O)c2c(F)cccc2F)cn1` [Example 31, N-(2′-ethyl-5′-(4-methyl-5-oxo-4,5-dihydro-1,3,4-oxadiazol-2-yl)-[2,3′-bipyridin]-5-yl)-2,6-difluorobenzamide] had an IC50 of 100 to 1000 nM.

The compound `Cc1cc(NC(=O)c2c(F)cccc2F)ccc1-c1cc(-c2nn(C)c(=O)o2)cnc1C1CC1` [Example 32, N-(4-(2-Cyclopropyl-5-(4-methyl-5-oxo-4,5-dihydro-1,3,4-oxadiazol-2-yl)pyridin-3-yl)-3-methylphenyl)-2,6-difluorobenzamide] displayed an IC50 of less than 100 nM.

Regarding `Cn1nc(-c2cnc(C3CC3)c(-c3cnc(NC(=O)c4c(F)cccc4F)cn3)c2)oc1=O` [Example 33, N-(5-(2-Cyclopropyl-5-(4-methyl-5-oxo-4,5-dihydro-1,3,4-oxadiazol-2-yl)pyridin-3-yl)pyrazin-2-yl)-2,6-difluorobenzamide], the IC50 is less than 100 nM.

As for `Cn1nc(-c2cnc(C3CC3)c(-c3cnc(NC(=O)c4c(F)cccc4Cl)cn3)c2)oc1=O` [Example 34, 2-Chloro-N-(5-(2-cyclopropyl-5-(4-methyl-5-oxo-4,5-dihydro-1,3,4-oxadiazol-2-yl)pyridin-3-yl)pyrazin-2-yl)-6-fluorobenzamide], the IC50 was 100 to 1000 nM.

`Cn1nc(-c2cnc(C3CC3)c(-c3ccc(NC(=O)c4c(F)cccc4F)cn3)c2)oc1=O` [Example 35, N-(2′-Cyclopropyl-5′-(4-methyl-5-oxo-4,5-dihydro-1,3,4-oxadiazol-2-yl)-[2,3′-bipyridin]-5-yl)-2,6-difluorobenzamide] registered an IC50 of less than 100 nM.

Compound `Cn1nc(-c2cnc(C3CC3)c(-c3ccc(NC(=O)c4c(F)cccc4F)nc3)c2)oc1=O` [Example 36, N-(2′-Cyclopropyl-5′-(4-methyl-5-oxo-4,5-dihydro-1,3,4-oxadiazol-2-yl)-[3,3′-bipyridin]-6-yl)-2,6-difluorobenzamide] registered an IC50 of less than 100 nM.

In turn, `Cn1nc(-c2cnc(C(F)(F)F)c(-c3cnc(NC(=O)c4c(F)cccc4F)cn3)c2)oc1=O` [Example 37, 2,6-Difluoro-N-(5-(5-(4-methyl-5-oxo-4,5-dihydro-1,3,4-oxadiazol-2-yl)-2-(trifluoromethyl)pyridine-3-yl)pyrazin-2-yl)benzamide] showed an IC50 of less than 100 nM.

`Cn1nc(-c2cnc(C(F)(F)F)c(-c3ccc(NC(=O)c4c(F)cccc4F)nc3)c2)oc1=O` [Example 38, 2,6-Difluoro-N-(5′-(4-methyl-5-oxo-4,5-dihydro-1,3,4-oxadiazol-2-yl)-2′-(trifluoromethyl)-[3,3′-bipyridin]-6-yl)benzamide] gave an IC50 of 100 to 1000 nM.

The compound `Cn1nc(-c2cnc(C(F)(F)F)c(-c3ccc(NC(=O)c4c(F)cccc4F)cn3)c2)oc1=O` [Example 39, 2,6-Difluoro-N-(5′-(4-methyl-5-oxo-4,5-dihydro-1,3,4-oxadiazol-2-yl)-2′-(trifluoromethyl)-[2,3′-bipyridin]-5-yl)benzamide] had an IC50 of 100 to 1000 nM.

In turn, `CCc1ncc(-c2nn(C)c(=O)o2)cc1-c1ccc(NCc2c(F)cccc2F)cn1` [Example 40, 5-(5-((2,6-Difluorobenzyl)amino)-2′-ethyl-[2,3′-bipyridin]-5′-yl)-3-methyl-1,3,4-oxadiazol-2(3H)-one] displayed a half-maximal inhibitory concentration (IC50) of 100 to 1000 nM.

Consider `CCc1ncc(-c2nn(C)c(=O)o2)cc1-c1ccc(NCc2c(F)cccc2F)nc1` [Example 41A, 5-(6′-((2,6-Difluorobenzyl)amino)-2-ethyl-[3,3′-bipyridin]-5-yl)-3-methyl-1,3,4-oxadiazol-2(3H)-one], for which the IC50 is greater than 1000 nM.

With `CCc1ncc(-c2nn(C)c(=O)o2)cc1-c1cc(C)c(NC(=O)c2c(F)cccc2F)cn1` [Example 41B, N-(2′-Ethyl-4-methyl-5′-(4-methyl-5-oxo-4,5-dihydro-1,3,4-oxadiazol-2-yl)-[2,3′-bipyridin]-5-yl)-2,6-difluorobenzamide], the IC50 was in the range of 100 to 1000 nM.

The compound `CCc1ncc(-c2nn(C)c(=O)o2)cc1-c1cnc(NC(=O)c2c(F)cccc2F)cc1C` [Example 41] returned an IC50 of less than 100 nM.

On to `Cn1nc(-c2cnc(C3CC3)c(-c3ccc(C(=O)Nc4c(F)cccc4Cl)s3)c2)oc1=O` [Example 42, N-(2-Chloro-6-fluorophenyl)-5-(2-cyclopropyl-5-(4-methyl-5-oxo-4,5-dihydro-1,3,4-oxadiazol-2-yl)pyridin-3-yl)thiophene-2-carboxamide], for which the IC50 is less than 100 nM.

`Cc1cnccc1NC(=O)c1ccc(-c2cc(-c3nn(C)c(=O)o3)cnc2C2CC2)s1` [Example 43, 5-(2-Cyclopropyl-5-(4-methyl-5-oxo-4,5-dihydro-1,3,4-oxadiazol-2-yl)pyridin-3-yl)-N-(3-methylpyridin-4-yl)thiophene-2-carboxamide] came in with an IC50 of less than 100 nM.

Take `CCc1ncc(-c2nn(C)c(=O)o2)cc1-c1ccc(C(=O)Nc2c(F)cccc2F)o1` [Example 44, N-(2,6-Difluorophenyl)-5-(2-ethyl-5-(4-methyl-5-oxo-4,5-dihydro-1,3,4-oxadiazol-2-yl)pyridin-3-yl)furan-2-carboxamide]: the IC50 is greater than 1000 nM.

`Cn1nc(-c2cnc(C3CC3)c(-c3ccc(C(=O)Nc4c(F)cccc4F)o3)c2)oc1=O` [Example 45, 5-(2-Cyclopropyl-5-(4-methyl-5-oxo-4,5-dihydro-1,3,4-oxadiazol-2-yl)pyridin-3-yl)-N-(2,6-difluorophenyl)furan-2-carboxamide]: the IC50 was greater than 1000 nM.

For the compound `CCc1ncc(-c2nn(C)c(=O)o2)cc1-c1ccc(NC(=O)c2c(F)cncc2F)cc1` [Example 46, N-(4-(2-Ethyl-5-(4-methyl-5-oxo-4,5-dihydro-1,3,4-oxadiazol-2-yl)pyridin-3-yl)phenyl)-3,5-difluoroisonicotinamide], the IC50 was in the range of 100 to 1000 nM.

`CCc1ncc(-c2nn(C)c(=O)o2)cc1-c1ccc(NC(=O)c2c(C)cccc2F)cc1` [Example 47, N-(4-(2-Ethyl-5-(4-methyl-5-oxo-4,5-dihydro-1,3,4-oxadiazol-2-yl)pyridin-3-yl)phenyl)-2-fluoro-6-methylbenzamide] registered an IC50 of 100 to 1000 nM.

With `CCc1ncc(-c2nn(C)c(=O)o2)cc1-c1ccc(NC(=O)c2c(F)cccc2Cl)cc1` [Example 48, 2-Chloro-N-(4-(2-ethyl-5-(4-methyl-5-oxo-4,5-dihydro-1,3,4-oxadiazol-2-yl)pyridin-3-yl)phenyl)-6-fluorobenzamide], the IC50 lay in the range of 100 to 1000 nM.

In the case of `CCc1ncc(-c2nn(C)c(=O)o2)cc1-c1ccc(NC(=O)c2snnc2C)cc1` [Example 49, N-(4-(2-Ethyl-5-(4-methyl-5-oxo-4,5-dihydro-1,3,4-oxadiazol-2-yl)pyridin-3-yl)phenyl)-4-methyl-1,2,3-thiadiazole-5-carboxamide], the IC50 was 100 to 1000 nM.

The compound `CCc1ncc(-c2nn(C)c(=O)o2)cc1-c1ccc(NC(=O)c2c(C)noc2C)cc1` [Example 50, N-(4-(2-Ethyl-5-(4-methyl-5-oxo-4,5-dihydro-1,3,4-oxadiazol-2-yl)pyridin-3-yl)phenyl)-3,5-dimethylisoxazole-4-carboxamide] came in with an IC50 greater than 1000 nM.

In the case of `CCc1ncc(-c2nn(C)c(=O)o2)cc1-c1ccc(NC(=O)c2ccncc2C)cc1` [Example 51, N-(4-(2-Ethyl-5-(4-methyl-5-oxo-4,5-dihydro-1,3,4-oxadiazol-2-yl)pyridin-3-yl)phenyl)-3-methylisonicotinamide], the IC50 was greater than 1000 nM.

For the compound `CCc1ncc(-c2nn(C)c(=O)o2)cc1-c1cnc(NC(=O)c2c(F)cccc2F)cn1` [Example 53, 2,6-Difluoro-N-(5-(2-ethyl-5-(4-methyl-5-oxo-4,5-dihydro-1,3,4-oxadiazol-2-yl)pyridin-3-yl)pyrazin-2-yl)benzamide], the IC50 is 100 to 1000 nM.

Compound `CCc1ncc(-c2nn(C)c(=O)o2)cc1-c1cnc(NC(=O)c2c(F)cccc2Cl)cn1` [Example 54, 2-Chloro-N-(5-(2-ethyl-5-(4-methyl-5-oxo-4,5-dihydro-1,3,4-oxadiazol-2-yl)pyridin-3-yl)pyrazin-2-yl)-6-fluorobenzamide] yielded an IC50 of less than 100 nM.

In turn, `Cc1ncc(-c2nn(C)c(=O)o2)cc1-c1cnc(NC(=O)c2c(F)cccc2F)cn1` [Example 55, 2,6-Difluoro-N-(5-(2-methyl-5-(4-methyl-5-oxo-4,5-dihydro-1,3,4-oxadiazol-2-yl)pyridin-3-yl)pyrazin-2-yl)benzamide] came in with an IC50 of 100 to 1000 nM.

In the case of `CNc1ncc(-c2nn(C)c(=O)o2)cc1-c1cnc(NC(=O)c2c(F)cccc2F)cn1` [Example 56, 2,6-Difluoro-N-(5-(5-(4-methyl-5-oxo-4,5-dihydro-1,3,4-oxadiazol-2-yl)-2-(methylamino)pyridin-3-yl)pyrazin-2-yl)benzamide], the IC50 was greater than 1000 nM.

Take `CCc1ncc(-c2nn(C)c(=O)o2)cc1-c1ccc(C(=O)Nc2c(F)cccc2F)s1` [Example 57, N-(2,6-Difluorophenyl)-5-(2-ethyl-5-(4-methyl-5-oxo-4,5-dihydro-1,3,4-oxadiazol-2-yl)pyridin-3-yl)thiophene-2-carboxamide]: the IC50 is less than 100 nM.

In turn, `Cc1ncc(-c2nn(C)c(=O)o2)cc1-c1ccc(C(=O)Nc2c(F)cccc2F)s1` [Example 58, N-(2,6-Difluorophenyl)-5-(2-methyl-5-(4-methyl-5-oxo-4,5-dihydro-1,3,4-oxadiazol-2-yl)pyridin-3-yl)thiophene-2-carboxamide] displayed an IC50 of 100 to 1000 nM.
